Read-outs that look alike come from different tables or passages of the source.
Assays:
Type in all cases: cell-based
PLK1 = target: T1, PLK1 (Homo sapiens, UniProt P53350); test: Western blot, protein degradation (DC50); details: 6 h, read-out: PLK1 DC50 (6 h)
T1 construct: endogenous in cells
Method in brief: (§1)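 Cells treated with compound, lysed in RIPA and resolved by SDS-PAGE (4%-12%); PVDF blots probed with primary antibody overnight at 4° C, then secondary antibody, and developed with ECL. Band intensities quantified by densitometry to give degradation.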

HUVEC [1] = test: Cell proliferation experiment (EC50), HUVEC; details: Homo sapiens
PBMC [2] = test: Cell proliferation experiment (EC50), PBMC
[3] = test system: Human Monocytic Leukemia MV4-11; test: Cell proliferation experiment (Alarm blue, 72 h, EC50); details: Homo sapiens
Method in brief: (§2)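 Single-cell suspensions from log-phase cultures are plated, compound in complete medium is added at 5-fold dilution steps (two replicates each), and cells grow for 72 h. Viability is then measured as Alamar blue fluorescence, giving EC50 by sigmoidal fitting.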

[4] = test system: Human Colon Cancer HCT-116; test: as above; details: HCT116 cells
Method in brief: as §2

[5] = test system: Human Acute Myelomonocytic Leukemia HL-60; test: as above; details: HL-60 cells
Method in brief: as §2

BRD4 = target: T2, BRD4 (Homo sapiens, UniProt O60885); test: Western blot, protein degradation (DC50); details: 6 h, read-out: BRD4 DC50 (6 h)
T2 construct: endogenous in cells
Method in brief: as §1

HUVEC [6] = test: Cell proliferation experiment (EC50), HUVEC; details: Homo sapiens; remark: listed apart in the source
PBMC [7] = test: Cell proliferation experiment (EC50), PBMC; remark: listed apart in the source
PBMC [8] = test: Cell proliferation experiment (EC50), PBMC; remark: listed apart in the source
HUVEC [9] = test: Cell proliferation experiment (EC50), HUVEC
[10] = test system: Human Glioma Cells U-87 MG; test: Cell proliferation experiment (Alarm blue, 72 h, EC50); details: U-87MG cells
Method in brief: as §2

Human Colon Cancer HT-29 = test: as above; details: HT-29 cells
Method in brief: as §2

[11] = test system: Human Small Cell Lung Cancer NCI-H82; test: as above; details: Homo sapiens, NCI-H82; NCIH82 cells
Method in brief: as §2

Daudi = test: Cell proliferation experiment (EC50), Daudi; details: Homo sapiens; Daudi cells
[12] = test system: Human Breast Cancer MDA-MB-231; test: Cell proliferation experiment (Alarm blue, 72 h, EC50); details: MDA-MB-231 cells
Method in brief: as §2

[13] = test system: Human Monocytic Leukemia THP-1; test: as above; details: THP-1 cells
Method in brief: as §2

[14] = test system: Human cervical adenocarcinoma cells Hela; test: as above
Method in brief: as §2

[15] = test system: Human Ovarian Cancer SK-OV-3; test: as above; details: SKO3 cells
Method in brief: as §2

T1 sequence (P53350 whole entry): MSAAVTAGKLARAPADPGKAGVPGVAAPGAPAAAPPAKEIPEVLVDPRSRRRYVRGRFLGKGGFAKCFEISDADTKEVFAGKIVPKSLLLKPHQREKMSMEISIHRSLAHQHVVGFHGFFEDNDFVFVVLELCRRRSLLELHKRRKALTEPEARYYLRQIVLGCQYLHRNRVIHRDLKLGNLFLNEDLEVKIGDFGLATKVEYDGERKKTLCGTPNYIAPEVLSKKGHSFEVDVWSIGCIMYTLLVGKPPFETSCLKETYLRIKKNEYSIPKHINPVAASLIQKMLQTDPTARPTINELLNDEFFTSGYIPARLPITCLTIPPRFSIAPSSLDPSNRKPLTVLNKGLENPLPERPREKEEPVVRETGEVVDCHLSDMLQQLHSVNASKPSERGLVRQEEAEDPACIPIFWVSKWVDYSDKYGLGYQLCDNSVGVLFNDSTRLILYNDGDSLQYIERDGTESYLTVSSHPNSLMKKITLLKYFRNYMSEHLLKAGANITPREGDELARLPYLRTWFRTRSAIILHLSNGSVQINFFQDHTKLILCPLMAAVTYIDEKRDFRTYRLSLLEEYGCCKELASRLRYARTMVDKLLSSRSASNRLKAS

Row | Structure (SMILES) | DC50 (PLK1) | EC50 ([3]; MV4-11, MV4;11 cells) | EC50 ([4]; Homo sapiens, HCT-116) | EC50 [5] | EC50 (PBMC [8]) | EC50 ([10]; Homo sapiens) | EC50 (Human Colon Cancer HT-29; Homo sapiens) | EC50 [11] | EC50 (Daudi) | further results
1 | O=C1CCC(N2Cc3c(NC(=O)CCOCCOCCOCCNC(=O)[C@]4(Cc5cccc(Nc6nccs6)n5)CC[C@@H](Oc5cccc(Cl)c5F)CC4)cccc3C2=O)C(=O)N1 (stereo partly shown) [UB-180581] | < 10 nM | 10 to 100 nM | > 1000 nM | 100 to 1000 nM |  |  |  |  |  | EC50 (HUVEC [1]): > 1000 nM; EC50 (PBMC [2]): > 1000 nM
2 | CC[C@@H]1C(=O)N(C)c2cnc(Nc3ccc(C(=O)NCCOCCNCCCCCCC(=O)Nc4cccc5c4CN(C4CCC(=O)NC4=O)C5=O)cc3OC)nc2N1C1CCCC1 (stereo partly shown) [UB-180655] |  |  |  |  |  |  |  |  |  | DC50 (PLK1; western blot): 100 to 1000 nM; DC50 (BRD4; western blot): < 10 nM; EC50 (HUVEC [6]): > 1000 nM; EC50 (PBMC [7]): > 1000 nM; EC50 ([3]; MV4;11 cells): 10 to 100 nM
3 | O=C1CCC(N2Cc3c(NC(=O)CNCCOCCN4CCN(CCNC(=O)[C@]5(Cc6cccc(Nc7nccs7)n6)CC[C@@H](Oc6cccc(Cl)c6F)CC5)CC4)cccc3C2=O)C(=O)N1 (stereo partly shown) [UB-180810] | < 10 nM | 100 to 1000 nM | 100 to 1000 nM |  | > 1000 nM |  |  |  |  | EC50 (HUVEC [9]; Homo sapiens): > 1000 nM
4 | CC[C@@H]1C(=O)N(C)c2cnc(Nc3ccc(C(=O)NC4CCN(CCOCCN(CCO)CC(=O)Nc5cccc6c5CN(C5CCC(=O)NC5=O)C6=O)CC4)cc3OC)nc2N1C1CCCC1 (stereo partly shown) [UB-180849] |  | 100 to 1000 nM |  |  |  | 100 to 1000 nM | 100 to 1000 nM | 100 to 1000 nM | 100 to 1000 nM | 
5 | CC[C@@H]1C(=O)N(C)c2cnc(Nc3ccc(C(=O)NCCCNCCCCCC(=O)Nc4cccc5c4CN(C4CCC(=O)NC4=O)C5=O)cc3OC)nc2N1C1CCCC1 (stereo partly shown) [UB-180660] |  | 10 to 100 nM | 100 to 1000 nM | 100 to 1000 nM |  | 100 to 1000 nM | 100 to 1000 nM | > 1000 nM |  | DC50 (PLK1; western blot): < 10 nM; DC50 (BRD4; western blot): 10 to 100 nM; EC50 (HUVEC [6]): > 1000 nM; EC50 (PBMC [7]): > 1000 nM; EC50 ([12]; Homo sapiens): 100 to 1000 nM; EC50 [13]: 100 to 1000 nM; EC50 ([14]; Homo sapiens): 100 to 1000 nM
6 | CC[C@@H]1C(=O)N(C)c2cnc(Nc3ccc(C(=O)NCc4cn(CCN(C)CCC(=O)Nc5cccc6c5CN(C5CCC(=O)NC5=O)C6=O)nn4)cc3OC)nc2N1C1CCCC1 (stereo partly shown) [UB-180848] |  | < 10 nM |  |  |  | 100 to 1000 nM | 100 to 1000 nM | 100 to 1000 nM | 100 to 1000 nM | 
7 | O=C1CCC(N2Cc3c(NC(=O)CCOCCOCCOCCNCCOCCNC(=O)[C@]4(Cc5cccc(Nc6nccs6)n5)CC[C@@H](Oc5cccc(Cl)c5F)CC4)cccc3C2=O)C(=O)N1 (stereo partly shown) [UB-180804] |  | 100 to 1000 nM |  | > 1000 nM | > 1000 nM |  |  |  |  | EC50 (HUVEC [9]; Homo sapiens): > 1000 nM
8 | CC[C@@H]1C(=O)N(C)c2cnc(Nc3ccc(C(=O)NCCOCCOCCOCCOCCNCC#Cc4cccc5c4CN(C4CCC(=O)NC4=O)C5=O)cc3OC)nc2N1C1CCCC1 (stereo partly shown) [UB-180844] | 10 to 100 nM | < 10 nM |  |  |  | 100 to 1000 nM | 100 to 1000 nM | 100 to 1000 nM | 100 to 1000 nM | DC50 (BRD4): 10 to 100 nM
9 | CC[C@@H]1C(=O)N(C)c2cnc(Nc3ccc(C(=O)NC4CCN(CCOCCN(CC(=O)Nc5cccc6c5CN(C5CCC(=O)NC5=O)C6=O)C(=O)OC(C)C(C)SSC[C@@H](NC(=O)CCOCCOCCOCCOCCOCCOCCNC(=O)CC[C@H](NC(=O)c5ccc(NCc6cnc7nc(N)[nH]c(=O)c7n6)cc5)C(=O)O)C(=O)O)CC4)cc3OC)nc2N1C1CCCC1 (stereo partly shown) [UB-180829] |  |  |  |  | > 1000 nM |  |  |  |  | EC50 [10]: 100 to 1000 nM; EC50 [12]: 100 to 1000 nM; EC50 [4]: 100 to 1000 nM; EC50 (Human Colon Cancer HT-29): 100 to 1000 nM; EC50 [15]: 100 to 1000 nM; EC50 [14]: 100 to 1000 nM; EC50 (HUVEC [9]): > 1000 nM
